Test results reported in patent US20240261274A1, “TREATMENT OF MYC-DRIVEN CANCERS WITH GSPT1 DEGRADERS” (MONTE ROSA THERAPEUTICS, INC., priority 2021, published 2024).

Columns and labels:
Assay type in all cases: cell-based
Conditions in all cases: MM1 S cells, 0.3, 3 and 30 μM, 6 hours
IKZF1 = target: T1, IKZF1 (Homo sapiens, UniProt Q13422+Q96SW2); test: Selectivity western blot assay in MM1 S cells, IKZF1; set-up: key: A represents no degradation observed at 30 μM; B represents trace degradation at 30 μM (below 20%); C represents weak degradation at 30 μM (below 50%); D represents degradation at 30 μM (>90%); E represents degradation at 3 μM (>90%); F represents degradation at 0.3 μM (>90%)
T1 construct: endogenous in cells; host or cells: MM1 S (ATCC CRL-2974)
Description: (§1) MM1 S cells were purchased from ATCC (cat. Number CRL-2974), sub-cultured in 90% RPMI 1640 with 10% FBS, supplemented with 1×P/S and incubated at 37° C., 5% CO2. Compounds were stored as 10 mM DMSO stock. For the assay, MM1 S cells (3 million cells/well) were plated in 6-well plates and incubated over night. Cells were treated with respective compounds using a serial dilution: 0.3 μM, 3 μM and 30 μM as well as a vehicle only (DMSO) control for 6 hours. Media with suspension cells was subsequently transferred to 15 mL conical tubes, wells rinsed twice with ice-cold PBS and merged with cell suspension in respective 15 mL conical tube. Cells were spinned down, supernatant aspirated, pellets resuspended in ice-cold PBS and transferred to microtubes. Cells were spinned down, supernatant aspirated and pellets resuspended in 120 μL RIPA lysis buffer supplemented with protease and phosphatase inhibitors. Cell lysates were incubated on ice for 20 minutes followed by centrifugation at >20,000×g for 5 min. Supernatants were transferred to fresh microtubes and stored at −80° C. Total protein concentration was determined using a BCA assay with a BSA standard curve and concentration of all samples was adjusted to 1 mg/mL. 25 μL 4×LDS sample buffer supplemented with 100 mM DTT was added to 75 μL sample. Samples were centrifuged (8,000×g, 1 min) and incubated at 95° C. for 5 min followed by another centrifugation step (8,000×g, 1 min). 20 μL of each sample was loaded on a 4-12% gel alongside a protein molecular weight marker. Gels were run in the presence of MOPS buffer at 80 Volts for 30 min, followed by 120 Volts for 1.5 h and proteins subsequently transferred onto nitrocellulose membranes at 20 Volts for 7 min using an iBlot2 Gel Transfer Device. Membranes were then cut horizontally into two pieces, covering 80-50 kDa and 50-25 kDa. Blocking the membranes was performed by gently shaking in 5% (w/v) skim milk in TSB-T for 1 hr at room temperature. All primary antibodies were used at a 1/1000 in 5% (w/v) BSA dissolved in TBST and incubated with membranes over night at 4° C. After three washes with 1×TBST for 5 min, HRP-coupled secondary antibodies diluted in 5% (w/v) BSA/TBST (Goat Anti-Rb IgG, dil. 1/10,000; Goat Anti-Mouse IgG, dil. 1/5000) were added for 1 hr at room temperature. After three washes with 1×TBST (5 minutes each), membranes were incubated with ECL reagent for 1 min at room temperature. Chemiluminescence signals were then detected using a LAS-4000 system with default settings and signals quantified using Image Studio Lite software (version 5.2). Membrane parts previously incubated with antibody against CK1 alpha were stripped off antibodies by incubating with stripping buffer for 30 minutes followed by three washed with TBST (5 min each), blocking with 5% (w/v) skim milk for 1 hr, and incubation with primary antibody against uGAPDH overnight at 4° C. Subsequent washes, incubation with secondary antibody and signal acquisition were performed as described above.

IKZF3 = target: T2, IKZF3 (Homo sapiens, UniProt Q96SW2+Q9UKT9); test: Selectivity western blot assay in MM1 S cells, IKZF3
T2 construct: endogenous in cells; host or cells: MM1 S (ATCC CRL-2974)
Description: as §1

CK1alpha = target: T3, CK1alpha (Homo sapiens, UniProt P48729+Q96SW2); test: Selectivity western blot assay in MM1 S cells, CK1alpha; set-up: key: A represents no degradation observed at 30 μM; B represents trace degradation at 30 μM (below 20%); C represents weak degradation at 30 μM (below 50%); D represents degradation at 30 μM (>90%); E represents degradation at 3 μM (>90%); F represents degradation at 0.3 μM (>90%)
T3 construct: endogenous in cells; host or cells: MM1 S (ATCC CRL-2974)
Description: as §1

ZFP91 = target: T4, ZFP91 (Homo sapiens, UniProt Q96JP5+Q96SW2); test: Selectivity western blot assay in MM1 S cells, ZFP91; set-up: key: A represents no degradation observed at 30 μM; B represents trace degradation at 30 μM (below 20%); C represents weak degradation at 30 μM (below 50%); D represents degradation at 30 μM (>90%); E represents degradation at 3 μM (>90%); F represents degradation at 0.3 μM (>90%)
T4 construct: endogenous in cells; host or cells: MM1 S (ATCC CRL-2974)
Description: as §1

GSPT1 = GSPT1 (Homo sapiens, UniProt P15170+Q96SW2); test: Selectivity western blot assay in MM1 S cells, GSPT1; set-up: endogenous in cells; host or cells: MM1 S (ATCC CRL-2974)
Description: as §1

T3 sequence (P48729 whole entry): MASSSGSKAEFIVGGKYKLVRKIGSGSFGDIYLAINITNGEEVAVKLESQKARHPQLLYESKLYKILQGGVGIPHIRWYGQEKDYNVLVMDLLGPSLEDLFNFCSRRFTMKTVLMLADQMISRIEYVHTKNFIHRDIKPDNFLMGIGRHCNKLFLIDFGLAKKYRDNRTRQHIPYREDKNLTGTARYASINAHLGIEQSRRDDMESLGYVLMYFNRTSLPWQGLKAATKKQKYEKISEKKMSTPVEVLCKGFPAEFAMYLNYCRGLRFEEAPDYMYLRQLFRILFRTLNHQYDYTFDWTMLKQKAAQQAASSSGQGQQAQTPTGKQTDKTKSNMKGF
T3 sequence (Q96SW2 whole entry): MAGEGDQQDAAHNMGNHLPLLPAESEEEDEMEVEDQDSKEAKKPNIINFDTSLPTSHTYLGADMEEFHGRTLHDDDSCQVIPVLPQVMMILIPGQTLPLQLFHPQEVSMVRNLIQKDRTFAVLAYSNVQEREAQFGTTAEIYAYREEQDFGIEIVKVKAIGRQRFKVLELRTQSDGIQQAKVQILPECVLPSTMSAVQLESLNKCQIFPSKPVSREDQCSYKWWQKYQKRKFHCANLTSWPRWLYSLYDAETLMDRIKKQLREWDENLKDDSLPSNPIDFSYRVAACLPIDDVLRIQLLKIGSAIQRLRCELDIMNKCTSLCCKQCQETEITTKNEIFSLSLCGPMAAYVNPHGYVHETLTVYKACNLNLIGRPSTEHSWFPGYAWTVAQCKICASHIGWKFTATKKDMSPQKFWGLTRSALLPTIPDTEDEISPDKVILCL
T3 sequence (Q16531 whole entry partner): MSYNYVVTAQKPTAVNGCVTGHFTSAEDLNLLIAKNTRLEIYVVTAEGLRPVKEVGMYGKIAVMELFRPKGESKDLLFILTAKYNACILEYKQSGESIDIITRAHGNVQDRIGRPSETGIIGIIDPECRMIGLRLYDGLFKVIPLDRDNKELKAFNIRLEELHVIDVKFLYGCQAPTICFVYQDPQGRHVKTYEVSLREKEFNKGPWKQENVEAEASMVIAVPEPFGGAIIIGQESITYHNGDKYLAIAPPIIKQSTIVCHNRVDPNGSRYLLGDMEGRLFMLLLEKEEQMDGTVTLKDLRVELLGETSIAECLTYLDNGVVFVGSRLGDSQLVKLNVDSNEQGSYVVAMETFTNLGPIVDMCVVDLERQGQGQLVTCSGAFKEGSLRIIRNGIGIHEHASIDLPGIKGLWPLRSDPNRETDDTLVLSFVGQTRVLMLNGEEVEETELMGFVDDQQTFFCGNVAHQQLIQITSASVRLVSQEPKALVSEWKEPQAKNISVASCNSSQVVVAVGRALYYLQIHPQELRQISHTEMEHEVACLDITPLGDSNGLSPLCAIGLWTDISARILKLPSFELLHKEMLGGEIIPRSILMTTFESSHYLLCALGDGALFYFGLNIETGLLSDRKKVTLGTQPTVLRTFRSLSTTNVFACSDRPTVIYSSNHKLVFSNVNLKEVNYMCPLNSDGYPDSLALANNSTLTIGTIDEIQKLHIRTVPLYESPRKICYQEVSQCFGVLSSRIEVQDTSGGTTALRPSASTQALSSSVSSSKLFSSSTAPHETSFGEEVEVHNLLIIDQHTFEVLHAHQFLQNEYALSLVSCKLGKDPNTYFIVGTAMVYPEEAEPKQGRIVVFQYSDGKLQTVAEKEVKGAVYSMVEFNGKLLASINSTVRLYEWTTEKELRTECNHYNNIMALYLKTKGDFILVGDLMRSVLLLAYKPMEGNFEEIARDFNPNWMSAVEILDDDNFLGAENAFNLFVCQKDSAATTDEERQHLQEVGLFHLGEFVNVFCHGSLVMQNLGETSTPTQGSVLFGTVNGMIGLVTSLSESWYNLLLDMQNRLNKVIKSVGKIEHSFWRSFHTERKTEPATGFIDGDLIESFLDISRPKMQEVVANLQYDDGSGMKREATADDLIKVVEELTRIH
T2 sequence (Q9UKT9 whole entry): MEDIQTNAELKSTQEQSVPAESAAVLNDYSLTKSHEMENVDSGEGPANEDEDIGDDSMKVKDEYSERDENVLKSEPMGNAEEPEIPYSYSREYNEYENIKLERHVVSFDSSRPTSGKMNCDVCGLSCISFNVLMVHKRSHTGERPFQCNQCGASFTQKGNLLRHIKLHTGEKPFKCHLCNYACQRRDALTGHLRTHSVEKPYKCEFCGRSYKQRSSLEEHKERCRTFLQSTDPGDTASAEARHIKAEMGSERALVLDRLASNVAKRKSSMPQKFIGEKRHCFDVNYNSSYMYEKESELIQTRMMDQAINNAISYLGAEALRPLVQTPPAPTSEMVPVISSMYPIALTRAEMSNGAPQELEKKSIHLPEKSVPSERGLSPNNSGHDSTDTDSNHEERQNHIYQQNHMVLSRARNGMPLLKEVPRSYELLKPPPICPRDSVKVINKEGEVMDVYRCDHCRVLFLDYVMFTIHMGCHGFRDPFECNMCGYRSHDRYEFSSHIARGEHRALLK
T2 sequence (Q96SW2 whole entry): as the sequence (Q96SW2 whole entry) above
T2 sequence (Q16531 whole entry partner): as the sequence (Q16531 whole entry partner) above
GSPT1, sequence (P15170 whole entry): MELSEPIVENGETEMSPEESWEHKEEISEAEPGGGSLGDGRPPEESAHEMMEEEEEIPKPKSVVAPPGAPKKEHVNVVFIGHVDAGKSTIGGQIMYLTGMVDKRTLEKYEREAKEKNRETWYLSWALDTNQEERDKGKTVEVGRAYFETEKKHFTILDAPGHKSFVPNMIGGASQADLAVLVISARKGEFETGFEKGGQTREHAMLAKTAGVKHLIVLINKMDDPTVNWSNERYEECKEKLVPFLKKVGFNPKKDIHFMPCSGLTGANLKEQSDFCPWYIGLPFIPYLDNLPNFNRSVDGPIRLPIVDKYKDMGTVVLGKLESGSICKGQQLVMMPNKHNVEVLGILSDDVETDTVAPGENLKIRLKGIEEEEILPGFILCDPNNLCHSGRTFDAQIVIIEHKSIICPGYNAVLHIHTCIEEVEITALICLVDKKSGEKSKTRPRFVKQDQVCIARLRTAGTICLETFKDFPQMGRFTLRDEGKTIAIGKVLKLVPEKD
GSPT1, sequence (Q96SW2 whole entry): as the sequence (Q96SW2 whole entry) above
GSPT1, sequence (Q16531 whole entry partner): as the sequence (Q16531 whole entry partner) above
T1 sequence (Q13422 whole entry): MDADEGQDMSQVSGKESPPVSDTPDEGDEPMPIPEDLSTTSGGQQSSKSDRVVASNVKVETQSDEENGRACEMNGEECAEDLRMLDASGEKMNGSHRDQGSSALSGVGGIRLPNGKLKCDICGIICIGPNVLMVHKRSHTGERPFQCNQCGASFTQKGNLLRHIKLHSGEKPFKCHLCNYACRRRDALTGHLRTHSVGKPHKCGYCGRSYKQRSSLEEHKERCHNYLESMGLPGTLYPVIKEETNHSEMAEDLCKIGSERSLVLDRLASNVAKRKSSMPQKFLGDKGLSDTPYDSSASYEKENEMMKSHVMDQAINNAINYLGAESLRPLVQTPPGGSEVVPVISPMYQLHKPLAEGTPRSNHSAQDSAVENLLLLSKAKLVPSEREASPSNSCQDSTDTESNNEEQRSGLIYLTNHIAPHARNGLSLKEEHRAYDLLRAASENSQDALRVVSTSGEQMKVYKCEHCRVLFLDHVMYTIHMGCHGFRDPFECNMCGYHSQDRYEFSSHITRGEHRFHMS
T1 sequence (Q96SW2 whole entry): as the sequence (Q96SW2 whole entry) above
T1 sequence (Q16531 whole entry partner): as the sequence (Q16531 whole entry partner) above
T4 sequence (Q96JP5 whole entry): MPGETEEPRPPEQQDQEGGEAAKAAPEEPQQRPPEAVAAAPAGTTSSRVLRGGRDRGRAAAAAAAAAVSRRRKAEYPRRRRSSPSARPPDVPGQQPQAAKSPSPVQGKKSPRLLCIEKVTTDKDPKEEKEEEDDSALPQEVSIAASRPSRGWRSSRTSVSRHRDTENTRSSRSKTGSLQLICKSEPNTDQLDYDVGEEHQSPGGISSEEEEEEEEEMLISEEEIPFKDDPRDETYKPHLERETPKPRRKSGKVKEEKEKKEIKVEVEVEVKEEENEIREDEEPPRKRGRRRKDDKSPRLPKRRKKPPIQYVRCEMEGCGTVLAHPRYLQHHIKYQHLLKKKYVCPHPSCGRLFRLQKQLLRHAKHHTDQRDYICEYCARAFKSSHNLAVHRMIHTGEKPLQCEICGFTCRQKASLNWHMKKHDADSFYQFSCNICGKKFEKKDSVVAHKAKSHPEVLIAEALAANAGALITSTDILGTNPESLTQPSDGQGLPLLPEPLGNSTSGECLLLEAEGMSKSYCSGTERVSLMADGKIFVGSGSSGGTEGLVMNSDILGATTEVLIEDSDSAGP
T4 sequence (Q96SW2 whole entry): as the sequence (Q96SW2 whole entry) above
T4 sequence (Q16531 whole entry partner): as the sequence (Q16531 whole entry partner) above

SMILES	IKZF1 degradation (IKZF1)	IKZF3 degradation (IKZF3)	CK1alpha degradation (CK1alpha)	ZFP91 degradation (ZFP91)	GSPT1 degradation (GSPT1)
Cc1ccc(NC(=O)NCc2ccc3c(c2)C(=O)N(C2CCC(=O)NC2=O)C3)cc1Cl (centres unmarked) [Compound 8]	A	B (B represents trace degradation at 30 μM (below 20%))	A	B (B represents trace degradation at 30 μM (below 20%))	F (F represents degradation at 0.3 μM (>90%))
Cc1ccc(NC(=O)OCc2ccc3c(c2)C(=O)N(C2CCC(=O)NC2=O)C3)cc1Cl (centres unmarked) [Compound 210]	A	B (B represents trace degradation at 30 μM (below 20%))	B (B represents trace degradation at 30 μM (below 20%))		D (D represents degradation at 30 μM (>90%))
Cc1c(Cl)cc(NC(=O)NCc2ccc3c(c2)C(=O)N(C2CCC(=O)NC2=O)C3)cc1CN1C2CCC1COC2 (centres unmarked) [Compound 138]	C (C represents weak degradation at 30 μM (below 50%))	B (B represents trace degradation at 30 μM (below 20%))	A	A	F (F represents degradation at 0.3 μM (>90%))
